One assay concerns the target Mu-type opioid receptor (Cavia porcellus, UniProt P97266). The experiment in a line: Displacement of [3H]DAMGO from mu opioid receptor in guinea pig brain membranes. The class given is cell membranes, Membrane. (In a radioligand displacement assay an active substance lowers the binding of a labelled ligand.)
For assay [1], the target named is Kappa-type opioid receptor (Cavia porcellus, UniProt P41144). The assay is described as follows: Displacement of [3H]U69593 from kappa opioid receptor in guinea pig brain membranes after 150 mins by scintillation counting. The class given is cell membranes, Membrane.
Sequence of Kappa-type opioid receptor (Cavia porcellus, UniProt P41144) (P41144 whole entry): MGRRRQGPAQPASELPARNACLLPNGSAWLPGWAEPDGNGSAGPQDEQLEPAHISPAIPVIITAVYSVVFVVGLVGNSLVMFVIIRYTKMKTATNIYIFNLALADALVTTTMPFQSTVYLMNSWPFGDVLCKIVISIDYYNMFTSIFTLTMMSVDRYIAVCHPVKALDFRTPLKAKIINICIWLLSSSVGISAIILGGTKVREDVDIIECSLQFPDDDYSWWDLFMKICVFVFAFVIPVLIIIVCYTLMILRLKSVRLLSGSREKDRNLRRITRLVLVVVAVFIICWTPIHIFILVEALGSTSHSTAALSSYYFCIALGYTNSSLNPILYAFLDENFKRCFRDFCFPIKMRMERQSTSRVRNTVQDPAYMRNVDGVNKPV
In assay [2] the target is Sigma non-opioid intracellular receptor 1 (Cavia porcellus, UniProt Q60492). The experiment in a line: Displacement of [3H]-(+)-pentazocine from sigma 1 receptor in guinea pig brain membranes. The class given is cell membranes, Membrane.
Sequence of Sigma non-opioid intracellular receptor 1 (Q60492 whole entry): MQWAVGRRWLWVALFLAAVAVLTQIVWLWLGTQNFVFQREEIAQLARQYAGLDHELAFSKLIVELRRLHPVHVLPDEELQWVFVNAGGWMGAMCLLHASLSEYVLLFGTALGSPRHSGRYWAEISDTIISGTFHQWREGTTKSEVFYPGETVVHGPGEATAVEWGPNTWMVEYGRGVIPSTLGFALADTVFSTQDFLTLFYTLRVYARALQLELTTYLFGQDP
Assay [3] deals with Delta-type opioid receptor (Rattus norvegicus, UniProt P33533). The experiment in a line: Displacement of [3H]DPDPE from delta opioid receptor in rat brain membranes. The class given is cell membranes.
Sequence of Delta-type opioid receptor (P33533 whole entry): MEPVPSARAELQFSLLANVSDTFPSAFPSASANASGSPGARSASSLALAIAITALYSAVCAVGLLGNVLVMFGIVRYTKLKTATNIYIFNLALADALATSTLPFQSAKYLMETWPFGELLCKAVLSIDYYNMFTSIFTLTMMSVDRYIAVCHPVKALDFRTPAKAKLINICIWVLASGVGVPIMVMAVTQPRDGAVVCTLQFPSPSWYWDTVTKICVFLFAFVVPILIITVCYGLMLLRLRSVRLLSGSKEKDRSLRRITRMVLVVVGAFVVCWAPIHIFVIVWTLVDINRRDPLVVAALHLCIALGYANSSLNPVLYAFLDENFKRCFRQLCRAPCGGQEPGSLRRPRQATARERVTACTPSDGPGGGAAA
The nature of assay [4]: Displacement of [3H]di-o-toylguanidine from sigma 2 receptor in rat liver homogenates. The class given is tissue-based.
The target in assay [5] is Kappa-type opioid receptor (Homo sapiens, UniProt P41145). The experiment in a line: Displacement of [3H]U69593 from kappa opioid receptor.
Sequence of Kappa-type opioid receptor (Homo sapiens, UniProt P41145) (P41145 whole entry): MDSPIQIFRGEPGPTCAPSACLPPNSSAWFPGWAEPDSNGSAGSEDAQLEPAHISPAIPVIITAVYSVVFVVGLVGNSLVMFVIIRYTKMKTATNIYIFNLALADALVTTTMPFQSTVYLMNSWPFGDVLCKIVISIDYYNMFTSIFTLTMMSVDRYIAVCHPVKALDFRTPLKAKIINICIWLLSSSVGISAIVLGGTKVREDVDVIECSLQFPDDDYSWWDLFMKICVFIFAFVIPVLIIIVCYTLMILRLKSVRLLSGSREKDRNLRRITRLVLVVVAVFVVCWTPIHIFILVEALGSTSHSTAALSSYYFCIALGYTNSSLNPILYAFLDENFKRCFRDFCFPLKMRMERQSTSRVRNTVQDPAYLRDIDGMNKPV

For eleven compounds, Ki results are on record in ChEMBL document CHEMBL1781976, “Synthesis of 7,9-diazabicyclo[4.2.2]decanes as conformationally restricted κ receptor agonists: fine tuning of the dihedral angle of the ethylenediamine pharmacophore” (Eur J Med Chem, 2011).

SMILES strings stand for the structures. Where only a bound is given, the exact number is not on record here.

Sequence of Mu-type opioid receptor (P97266 whole entry): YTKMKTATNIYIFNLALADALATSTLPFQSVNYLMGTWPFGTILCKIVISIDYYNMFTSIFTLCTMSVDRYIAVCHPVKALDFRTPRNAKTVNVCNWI

What is called Ki is a dissociation constant, usually derived from enzyme kinetics or from competition with a known ligand. In the case of `COC(=O)N1CC2C(N3CCCC3)CCCC1CN2C(=O)Cc1ccc(Cl)c(Cl)c1` (racemic), the Ki on Mu-type opioid receptor is above 1 µM; in assay [1], 0.333 µM; in assay [2], 0.452 µM; in assay [3], above 1 µM.
With `COC(=O)N1CC2C(N3CCCC3)CCCC1CN2C(=O)Cc1ccc(Cl)c(Cl)c1` (stereo in doubt; 9), the inhibitory constant (Ki) was above 1 µM at Mu-type opioid receptor; 0.065 µM in assay [1]; above 1 µM in assay [4]; above 1 µM in assay [2]; above 1 µM in assay [3].
Regarding `O=C(Cc1ccc(Cl)c(Cl)c1)N1CC2CCCC(N3CCCC3)C1CN2Cc1ccccc1` (racemic; 14), the Ki at Mu-type opioid receptor was above 1 µM; in assay [1], 0.378 µM; in assay [4], above 1 µM; in assay [2], 0.221 µM; in assay [3], 0.15 µM.
Regarding `COC(=O)N1CCN(C(=O)Cc2ccc(Cl)c(Cl)c2)[C@H](CN2CCCC2)C1`, in assay [5], affinity was put at a Ki of 0.00045 µM.
In assay [1], `O=C(Cc1ccc(Cl)c(Cl)c1)N1CCN2CC[C@H](N3CCCC3)[C@H]1C2` (relative stereo) came in with a Ki of 0.073 µM.
The compound `O=C(Cc1ccc(Cl)c(Cl)c1)N1CCN2CC[C@@H](N3CCCC3)[C@H]1C2` (relative stereo) registered a Ki in assay [1] above 1 µM.
With `COc1ccc(CN2CC3CCCC(N4CCCC4)C2CN3Cc2ccccc2)cc1` (stereo in doubt; 25), the values for the Ki in assay [4] and in assay [2] were 0.203 µM and 0.238 µM, respectively.
Consider `CC(C)=CCN1CC[C@]2(C)c3cc(O)ccc3C[C@H]1[C@H]2C` [(+)-PENTAZOCINE], for which the inhibitory constant (Ki) in assay [4] stood at 0.058 µM.
In the case of `COc1ccc(CN2CC3CCCC(N4CCCC4)C2CN3Cc2ccccc2)cc1` (racemic), the Ki in assay [4] is above 1 µM; in assay [2], 0.531 µM.
On to `O=C(Cc1ccc(Cl)c(Cl)c1)N1CC2CCCC(N3CCCC3)C1CN2Cc1ccccc1` (racemic; 26), for which the inhibitory constant (Ki) was above 1 µM at Mu-type opioid receptor, 0.314 µM in assay [1], 0.175 µM in assay [2] and 0.324 µM in assay [3].
In assay [5], `COC(=O)N1CCN(C(=O)Cc2ccc(Cl)c(Cl)c2)[C@@H]([C@@H](C)N2CCCC2)C1` returned a Ki of 0.00031 µM.
